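Growth conditions: 96-well plates. Treatment: test compound, 48 hours, 5 concentrations. Analysis: linear interpolation between bracketing concentrations; unreached endpoints set to highest concentration. At the GI50, growth is halved.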 Calls of active or inactive are those of the source. Rule as the data show it: active = GI50 up to about 1.1 µM and inactive = higher.
Assays:
Assay in all cases: DTP human tumour cell line panel, 48 h
[1] = system: SK-MEL-5
[2] = system: SF-268
[3] = system: UACC-62
[4] = system: U-251
[5] = system: SNB-19
[6] = system: MOLT-4
[7] = system: SNB-75
[8] = system: SN12C
[9] = system: PC-3
[10] = system: NCI-H23
[11] = system: HCC 2998
[12] = system: HL-60
[13] = system: COLO 205
[14] = system: NCI-H226
[15] = system: MDA-MB-231
[16] = system: K562
[17] = system: A549
[18] = system: MDA-MB-435
[19] = system: MDA-N

Row | SMILES | GI50 [1] | GI50 [2] | GI50 [3] | GI50 [4] | GI50 [5] | GI50 [6] | GI50 [7] | GI50 [8] | GI50 [9] | GI50 [10] | GI50 [11] | GI50 [12] | GI50 [13] | GI50 [14] | GI50 [15] | GI50 [16] | GI50 [17] | GI50 [18] | GI50 [19]
1 | CSc1nc(O)c(C#N)c(-c2ccc(Cl)cc2)n1 | > 100 µM (inactive) | > 100 µM (inactive) | 73.6 µM (inactive) | 97.9 µM (inactive) | 77.4 µM (inactive) | > 100 µM (inactive) | 93.8 µM (inactive) | > 100 µM (inactive) | 91.4 µM (inactive) | > 100 µM (inactive) | > 100 µM (inactive) | 35.5 µM (inactive) | > 100 µM (inactive) | > 100 µM (inactive) | > 100 µM (inactive) | > 100 µM (inactive) | > 100 µM (inactive) | > 100 µM (inactive) | –
2 | Sc1ncnc2c1ncn2C1CCCO1 (stereo unspecified) | > 100 µM (inactive) | > 100 µM (inactive) | 76.2 µM (inactive) | > 100 µM (inactive) | > 100 µM (inactive) | > 100 µM (inactive) | 65.3 µM (inactive) | > 100 µM (inactive) | – | > 100 µM (inactive) | > 100 µM (inactive) | > 100 µM (inactive) | > 100 µM (inactive) | – | – | 38.8 µM (inactive) | > 100 µM (inactive) | – | –
3 | CN1C[C@@H]2CC(=O)CC[C@@H]2C[C@H]1C#N | > 100 µM (inactive) | > 100 µM (inactive) | > 100 µM (inactive) | – | > 100 µM (inactive) | > 100 µM (inactive) | > 100 µM (inactive) | > 100 µM (inactive) | – | – | > 100 µM (inactive) | > 100 µM (inactive) | – | > 100 µM (inactive) | – | > 100 µM (inactive) | > 100 µM (inactive) | – | –
4 | COc1ccc(-c2c(C#N)c(N)nc(Sc3ccccc3N)c2C#N)cc1 | 28.6 µM (inactive) | 5.77 µM (inactive) | 9.46 µM (inactive) | 13.4 µM (inactive) | 16.1 µM (inactive) | > 71 µM (inactive) | – | 9.66 µM (inactive) | 12.9 µM (inactive) | > 48.4 µM (inactive) | > 43.1 µM (inactive) | > 100 µM (inactive) | > 100 µM (inactive) | 52.8 µM (inactive) | 11.7 µM (inactive) | 32.3 µM (inactive) | 17.6 µM (inactive) | > 83 µM (inactive) | > 100 µM (inactive)
5 | CN(C)c1nc2oc(-c3ccccc3)c(-c3ccccc3)c2c2nnnn12 | > 100 µM (inactive) | > 100 µM (inactive) | > 100 µM (inactive) | > 100 µM (inactive) | > 100 µM (inactive) | > 100 µM (inactive) | 41.1 µM (inactive) | > 100 µM (inactive) | – | > 100 µM (inactive) | > 100 µM (inactive) | 19.8 µM (inactive) | > 100 µM (inactive) | > 100 µM (inactive) | > 100 µM (inactive) | > 100 µM (inactive) | > 100 µM (inactive) | > 100 µM (inactive) | –
6 | O=C1/C(=C/C=C/c2ccccc2)CCC1CNc1ccc(Br)cc1 (stereo unspecified) | 47.5 µM (inactive) | > 100 µM (inactive) | 6.92 µM (inactive) | > 100 µM (inactive) | > 100 µM (inactive) | 24.3 µM (inactive) | – | 4.51 µM (inactive) | 79.3 µM (inactive) | > 100 µM (inactive) | 78 µM (inactive) | 17.1 µM (inactive) | 20.8 µM (inactive) | > 100 µM (inactive) | 23.1 µM (inactive) | 27.1 µM (inactive) | 53 µM (inactive) | 44.5 µM (inactive) | –
7 | COc1ccc(OC)c2c(C(=O)O)c(C(C)c3ccccc3)ccc12 (stereo unspecified) | > 100 µM (inactive) | > 100 µM (inactive) | > 100 µM (inactive) | 91.4 µM (inactive) | > 100 µM (inactive) | > 100 µM (inactive) | > 100 µM (inactive) | > 100 µM (inactive) | – | > 100 µM (inactive) | > 100 µM (inactive) | > 100 µM (inactive) | > 100 µM (inactive) | > 100 µM (inactive) | – | > 100 µM (inactive) | > 100 µM (inactive) | – | –
8 | Cc1n[nH]c(C(F)(F)F)c1/N=N/N1CCOCC1 | 2.92 µM (inactive) | 13.1 µM (inactive) | 11 µM (inactive) | 12 µM (inactive) | 15.2 µM (inactive) | 1.84 µM (inactive) | 12.5 µM (inactive) | 11 µM (inactive) | 7.16 µM (inactive) | 4.06 µM (inactive) | 1.53 µM (inactive) | – | 4.69 µM (inactive) | 8.53 µM (inactive) | 12.8 µM (inactive) | 1.08 µM (active) | 8.89 µM (inactive) | 12.2 µM (inactive) | –
9 | CCN(CC)CCNc1ccc2nc(C)n3c4ccc(O)cc4c(=O)c1c23 | 2.01 µM (inactive) | 0.481 µM (active) | – | 0.745 µM (active) | 0.546 µM (active) | 0.0447 µM (active) | 1.09 µM (active) | 0.618 µM (active) | – | – | 0.552 µM (active) | 0.286 µM (active) | – | 0.16 µM (active) | – | 1.48 µM (inactive) | 0.179 µM (active) | – | –
10 | C[C@]12CC[C@H](O)CC1=CC[C@@H]1[C@@H]2CC[C@]2(C)C(=N/O)/C(=C/c3ccc([N+](=O)[O-])cc3)C[C@@H]12 | 1.18 µM (inactive) | 10.9 µM (inactive) | 10.9 µM (inactive) | – | 10.6 µM (inactive) | 3.66 µM (inactive) | 4.32 µM (inactive) | 3.08 µM (inactive) | 3.22 µM (inactive) | 5.94 µM (inactive) | 2.37 µM (inactive) | 1.91 µM (inactive) | 3.53 µM (inactive) | 1.16 µM (inactive) | – | 3.3 µM (inactive) | 0.782 µM (active) | 8.38 µM (inactive) | 6.93 µM (inactive)
11 | Cc1c(/C=N/NC(=S)Nc2ccc([N+](=O)[O-])cc2)c(=O)n(-c2ccccc2)n1C | 33.8 µM (inactive) | 13.5 µM (inactive) | 17.6 µM (inactive) | 15.6 µM (inactive) | 16 µM (inactive) | 9.48 µM (inactive) | 13.3 µM (inactive) | – | 19.1 µM (inactive) | 17.9 µM (inactive) | 42.3 µM (inactive) | 35.2 µM (inactive) | 50.4 µM (inactive) | 10.8 µM (inactive) | 20.7 µM (inactive) | 47.1 µM (inactive) | – | > 100 µM (inactive) | –
12 | CCO/C(=N/S(=O)(=O)C(F)(F)F)N(C(C)C)C(C)C | > 100 µM (inactive) | > 100 µM (inactive) | > 100 µM (inactive) | > 100 µM (inactive) | > 100 µM (inactive) | > 100 µM (inactive) | – | > 100 µM (inactive) | > 100 µM (inactive) | > 100 µM (inactive) | – | > 100 µM (inactive) | > 100 µM (inactive) | – | > 100 µM (inactive) | – | > 100 µM (inactive) | > 100 µM (inactive) | > 100 µM (inactive)
13 | CC(C)(C)C1=CC(=NNC(=S)NCc2ccccc2)C=C(C(C)(C)C)C1=O | 37.6 µM (inactive) | 87.3 µM (inactive) | > 100 µM (inactive) | 94.2 µM (inactive) | 71 µM (inactive) | 66.1 µM (inactive) | 27.9 µM (inactive) | 92.5 µM (inactive) | – | 64 µM (inactive) | 53.7 µM (inactive) | > 100 µM (inactive) | 51.5 µM (inactive) | 78.5 µM (inactive) | – | 83 µM (inactive) | 42.7 µM (inactive) | – | –
14 | CC1=C(C#N)C(=C(C#N)C#N)OC1(C)Cc1ccccc1 (stereo unspecified) | 67.8 µM (inactive) | 49.5 µM (inactive) | 20.6 µM (inactive) | > 100 µM (inactive) | > 100 µM (inactive) | 34.3 µM (inactive) | > 100 µM (inactive) | 82.6 µM (inactive) | 36.2 µM (inactive) | 36.7 µM (inactive) | 29.5 µM (inactive) | – | 21 µM (inactive) | 31.2 µM (inactive) | 47.9 µM (inactive) | 39.6 µM (inactive) | 56.8 µM (inactive) | > 100 µM (inactive) | –
15 | CCn1c(-c2ccccc2)nc2c1C(=O)c1ccccc1C2=O | 11.2 µM (inactive) | – | 15.8 µM (inactive) | 29.9 µM (inactive) | 32.8 µM (inactive) | 14.7 µM (inactive) | – | 20.7 µM (inactive) | 10.2 µM (inactive) | 21.8 µM (inactive) | 18.2 µM (inactive) | 18 µM (inactive) | 14.1 µM (inactive) | 24.4 µM (inactive) | – | 25.9 µM (inactive) | 28.4 µM (inactive) | 15.9 µM (inactive) | 18.8 µM (inactive)
16 | Nc1nc(O)c2nc(CNc3ccc(C(=O)NC(CCC(=O)O)C(=O)O)cc3)cnc2n1 (stereo unspecified) | > 100 µM (inactive) | > 100 µM (inactive) | > 100 µM (inactive) | > 100 µM (inactive) | > 100 µM (inactive) | > 100 µM (inactive) | 0.9 µM (active) | > 100 µM (inactive) | > 100 µM (inactive) | > 100 µM (inactive) | > 100 µM (inactive) | – | – | > 100 µM (inactive) | – | > 100 µM (inactive) | > 100 µM (inactive) | > 100 µM (inactive) | –
17 | COc1cc2c(c(OC)c1OC)-c1ccc(SC)c(=O)cc1[C@@H](NC(=O)c1ccc(Cl)cc1)CC2 | < 0.01 µM (active) | < 0.01 µM (active) | < 0.01 µM (active) | < 0.01 µM (active) | < 0.01 µM (active) | < 0.01 µM (active) | 2.16 µM (inactive) | < 0.01 µM (active) | – | < 0.01 µM (active) | < 0.01 µM (active) | < 0.01 µM (active) | < 0.01 µM (active) | < 0.01 µM (active) | – | < 0.01 µM (active) | < 0.01 µM (active) | – | –

Reference: ChEMBL document CHEMBL1201862, “PubChem BioAssay data set” (2004)
